From US20070173538A1 (Alcon, Inc., priority 2005, published 2007)

Experiments:
FGFR = experiment: Cell-free enzymatic kinase inhibition assay, FGFR; assay type: biochemical; settings: 1 mM ATP
[1] = Dissolution of compound in molten PEG; assay type: physicochemical; settings: PEG 3350 and PEG 8000 melted at about 60° C. to 95° C.
Excerpt: The present inventors have discovered that certain active agents have a higher solubility in the presence of PEG than in water. […] This pellet forms a colloidal like suspension when the pellet dissolves in water. Furthermore, using blends of high and low molecular weight PEGs can make erodible gel with the compound uniformly dispersed in it (see examples). This provides an injection dosage form for delivery of insoluble compounds via posterior juxtascleral or intravitreal administration, which enhances the solubility of the compounds and achieves the desired bioavailability. In the formulations of the present invention, the compound forms a solid solution in the matrix of the PEG.

IC50 (FGFR): > 12.5 µM | Solubility in PEG [1]: dissolve completely
SMILES: Cc1ccc(F)c(NC(=O)Nc2ccc(-c3cccc4[nH]nc(N)c34)cc2)c1 [RTK Inhibitor, N-[4-(3-amino-1H-indazol-4-yl)phenyl]-N′-(2-fluoro-5-methylphenyl)urea]
